Here are results for six compounds from ChEMBL document CHEMBL5113383, “Application of the All-Hydrocarbon Stapling Technique in the Design of Membrane-Active Peptides” (J Med Chem, 2022).

Positions of bridges follow the written chain, without caps; N, C: chain ends. Non-standard residues stand in square brackets, D forms with d. Residues, ends and D or L forms follow the SMILES beside them. S5 = C=CCCC[C@](C)(N)C(=O)O; Nle = CCCC[C@H](N)C(=O)O

Series [1] is described as follows: Hemolytic activity in rabbit erythrocytes. Format: toxicity, cell-based, Oryctolagus cuniculus, Erythrocyte.
Series [2] can be described thus: Hemolytic activity in human erythrocytes. It counts as toxicity, cell-based, Erythrocyte.
The nature of series [3]: Hemolytic activity in human erythrocytes incubated for 1 hr. Format: toxicity, cell-based, Erythrocyte. As to conditions: read-out: Activity.
The nature of series [4]: Hemolytic activity in human erythrocytes incubated for 30 mins. It counts as toxicity, cell-based, Erythrocyte.

For the compound `CC[C@H](C)[C@H](NC(=O)CNC(C)=O)C(=O)NCC(=O)N[C@@H](C)C(=O)N[C@H](C(=O)N[C@@H](CC(C)C)C(=O)N[C@@H](CCCCN)C(=O)N[C@H](C(=O)N[C@@H](CC(C)C)C(=O)N[C@H](C(=O)N[C@H](C(=O)NCC(=O)N[C@@H](CC(C)C)C(=O)N1CCC[C@H]1C(=O)N[C@]1(C)CCCCCC/C=C\CCC[C@@](C)(C(=O)N[C@@H](CCCCN)C(=O)N[C@@H](CCCNC(=N)N)C(=O)N[C@@H](CCC(N)=O)C(=O)N[C@@H](CCC(N)=O)C(N)=O)NC(=O)[C@H](CCCCN)NC(=O)[C@H]([C@@H](C)CC)NC(=O)[C@H](Cc2c[nH]c3ccccc23)NC(=O)[C@H](CO)NC(=O)[C@H]([C@@H](C)CC)NC(=O)[C@H](CC(C)C)NC1=O)[C@@H](C)O)[C@@H](C)O)C(C)C)C(C)C`, the HC50 (commonly the concentration giving 50% haemolysis) in series [1] is 700 nM.
Compound `CC[C@H](C)[C@H](NC(=O)CN)C(=O)N[C@@H](CCSC)C(=O)N[C@@H](CO)C(=O)N[C@@H](CO)C(=O)N[C@@H](CC(C)C)C(=O)N[C@@H](CCSC)C(=O)N[C@@H](CCCCN)C(=O)N[C@@H](CCCCN)C(=O)N[C@@H](CC(C)C)C(=O)N[C@@]1(C)CCC/C=C\CCC[C@@](C)(C(=O)N[C@@H](CCCCN)C(N)=O)NC(=O)[C@H]([C@@H](C)CC)NC(=O)[C@H](Cc2cnc[nH]2)NC(=O)[C@H](C)NC1=O` (H-GIMSSLMKKL[S5]AHI[S5]K-NH2; staple (Z) 11-15) showed an HC50 in series [2] of 125 µM.
`CC(C)[C@@H]1NC(=O)[C@@](C)(NC(=O)[C@H](C)NC(=O)[C@H](CCCCN)NC(=O)CNC(=O)[C@H](Cc2ccccc2)NC(=O)[C@H](CCCCN)NC(=O)[C@H](CCCCN)NC(=O)[C@H](CCCCN)NC(=O)[C@H](CO)NC(=O)[C@H](Cc2cnc[nH]2)NC(=O)[C@]2(C)CCC/C=C\CCC[C@](C)(NC(=O)CN)C(=O)NCC(=O)N[C@@H](CCCCN)C(=O)N[C@@H](Cc3ccccc3)C(=O)N2)CCC/C=C\CCC[C@@](C)(C(=O)N[C@@H](C)C(=O)N[C@@H](CCCCN)C(=O)N[C@@H](CCCCN)C(N)=O)NC(=O)[C@H](CCC(=O)O)NC(=O)CNC1=O` (H-G[S5]GKF[S5]HSKKKFGKA[S5]VGE[S5]AKK-NH2; staple (Z) 2-6, 16-20) had an HC50 in series [2] of more than 400 µM. Moreover, the hemolysis at 1 h in series [3] was less than 1%.
On to `CCCC[C@@H]1NC(=O)[C@H](CCCCN)NC(=O)[C@H](Cc2c[nH]c3ccccc23)NC(=O)[C@@](C)(NC(=O)[C@@H](N)CCCCN)CCC/C=C\CCC[C@@](C)(C(=O)N[C@@H](CCCCN)C(N)=O)NC1=O` (H-K[S5]WK[Nle][S5]K-NH2; staple (Z) 2-6), for which, in series [4], the HC50 at 0.5 h stood at 3300 nM.
On the same count and under the same terms, under `CC(=O)N[C@@H](CCCCN)C(=O)N[C@@]1(C)CCC/C=C\CCC[C@@](C)(C(=O)N[C@@H](CCCCN)C(N)=O)NC(=O)[C@H](C)NC(=O)[C@H](CCCCN)NC(=O)[C@H](Cc2c[nH]c3ccccc23)NC1=O` (Ac-K[S5]WKA[S5]K-NH2; staple (Z) 2-6) stands 1400 nM.
`CC[C@H](C)[C@H](NC(=O)CNC(C)=O)C(=O)NCC(=O)N[C@@H](C)C(=O)N[C@H](C(=O)N[C@@H](CC(C)C)C(=O)N[C@@H](CCCCN)C(=O)N[C@H](C(=O)N[C@@H](CC(C)C)C(=O)N[C@H](C(=O)N[C@H](C(=O)NCC(=O)N[C@@H](CC(C)C)C(=O)N1CCC[C@H]1C(=O)N[C@@H](C)C(=O)N[C@@H](CC(C)C)C(=O)N[C@H](C(=O)N[C@@H](CO)C(=O)N[C@@H](Cc1c[nH]c2ccccc12)C(=O)N[C@H](C(=O)N[C@@H](CCCCN)C(=O)N[C@@H](CCCNC(=N)N)C(=O)N[C@@H](CCCCN)C(=O)N[C@@H](CCCNC(=N)N)C(=O)N[C@@H](CCC(N)=O)C(=O)N[C@@H](CCC(N)=O)C(N)=O)[C@@H](C)CC)[C@@H](C)CC)[C@@H](C)CC)[C@@H](C)O)C(C)C)C(C)C` gave an HC50 in series [1] of 2600 nM.
